Here are results for 15 compounds from patent publication US9233978B2, “6-fused heteroaryldihydropyrimidines for the treatment and prophylaxis of hepatitis B virus infection” (Hoffmann-La Roche Inc., priority 2014, dated 2016).

pEC50: −log10 of the molar value. In brackets after ≈: the same amount, converted by molar mass.

One series relates to HepDE19 cells. The series is described as follows: Cytotoxicity in HepDE19 cells (CCK-8) and selectivity index. Format: cell-based. The following applies: CC50 (HepDE19) value / EC50 (HepG2.2.15) value. From the text:
(§1) HepG2.2.15 and HepDE19 are stably-transfected cell lines containing the HBV genome. Both cell lines are derived from the hepatoblastoma cell line Hep G2 (American Type Culture Collection, ATCC® HB-8065™) by the published procedures described in references: MA Selles et al. Proc. Natl. Acad. Sci. USA 1987, 84, 1005-1009 and H Guo et al. Journal of Virology 2007, 81, 12472-12484, respectively. Both cell lines were maintained in Dulbecco's modified Eagle's medium (DMEM)-F12 medium supplemented with 10% fetal bovine serum, 100 U/mL penicillin, 100 μg/mL streptomycin, and 0.5 mg/mL of G418.
(§2) HepDE19 cells were seeded into 96-well plates (5×10^3 cells per well) and treated with compounds for EC50 determination. Five days after treatment, cell viability was measured by addition of 20 μL of CCK-8 reagent. Two hours after incubation at 37° C., the absorbance at wavelengths of 450 nm and 630 nm (OD450 and OD630) was recorded by a plate reader. The concentration results in the death of 50% of the host cells (CC50) of each compound were determined.
(§3) The relative effectiveness of the compound in inhibiting viral replication compared to inducing cell death was defined as the selectivity index (CC50 value/EC50 value). Based on CC50 and EC50 data, selectivity indexes were determined.

Assay in series [1]: as above
The following applies: human, HepDE19 cells; CCK-8 cell viability; five days after treatment. Format: cell-based.
Excerpt: as §1, §2, §3

A further series in a line: Lysa solubility. Format: physicochemical. The note with it: 0.05 M phosphate buffer (pH 6.5). Put shortly:
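Duplicate samples dried from 10 mM DMSO stocks, taken up in 0.05 M phosphate buffer pH 6.5, stirred 1 h, shaken 2 h and left overnight. Filtrate and 1/10 dilution quantified by direct UV or HPLC-UV, in μg/mL; above 80% of the calculated maximum, reported as greater than that value.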

Another series deals with HBV. As to the kind of experiment: Anti-HBV activity in vitro, HepG2.2.15 cells, extracellular HBV DNA by qPCR. Format: cell-based. The following applies: Hepatitis B virus, HepG2.2.15, 120 h, HepG2.2.15 cells; HBV replication inhibited by 50%, extracellular HBV DNA by qPCR; five days after compound treatment; read-out: EC50. Put shortly:
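HBV-producing HepG2.2.15 cells were seeded and left overnight at 37 °C, then treated with half-log serial compound dilutions at a final 0.5% DMSO. After 5 days, viral DNA was extracted from the supernatant and extracellular HBV DNA was quantified by qPCR.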
For orientation: Quantitative PCR measures a nucleic acid by following its amplification.

A short description of series [2]: Human microsomal metabolic stability. The note with it: human microsomes 0.5 mg/mL, 1 μM test compound, NADPH, 37° C., pH 7.4, 0-30 minutes. In kind it is in vitro ADME. As for the experimental part: Human Microsomes (BD Gentest) were preincubated with test compound for 10 minutes at 37° C. in 100 mM phosphate buffer, pH 7.4. The reactions were initiated by adding NADPH or NADPH regenerating system to give a final incubation volume of 400 μL. For NADPH system, the final incubations contained 1 μM test compound, 0.5 mg/mL liver microsomal protein, 1 mM NADPH in 100 mM phosphate buffer, pH 7.4. For the NADPH regenerating system, the final incubations contained 1 μM test compound, 0.5 mg/mL liver microsomal protein, 3 mM glucose 6-phosphate, 1 mM NADP, 3 mM MgCl2 and 0.05 mg/mL glucose 6-phosphate dehydrogenase in 100 mM phosphate buffer, pH 7.4. After incubation times of 0, 3, 6, 9, 15 and 30 minutes at 37° C., 1 sample was obtained from each time point and 50 μL of each sample was removed and transferred to 150 μL of methanol solution which was maintained at 4° C. and contained 2 μM tolbutamide as internal standard. Following precipitation and centrifugation, the amount of compound remaining in the samples were determined by LC-MS/MS. Controls of no NADPH or no NADPH regenerating system at zero and 30 minutes were also prepared and analyzed.

As to `COC(=O)C1=C(CN2CCN3C(=O)N(C(C)C)C[C@@H]3[C@H]2C(=O)O)NC(c2nccs2)=N[C@H]1c1ccc(F)c(F)c1C` (single isomer, unassigned) [Example 85B], the “Selectivity index (CC50/EC50)” value with HepDE19 cells is reported as above 16667. Further, the CC50 (usually the concentration at which the toxic effect on the cells reaches its halfway point) at 5 days in series [1] was above 100000 nM. For the same compound, in “Lysa solubility”, the “Lysa” value is 770 µg/mL. The pEC50 (as a rule, −log10 of the EC50, conventionally taken in molar units) in the series with HBV is 8.22.
`CCOC(=O)C1=C(CN2CCN3C(=O)N(CC4CC4)C[C@@H]3[C@H]2C(=O)O)NC(c2nccs2)=N[C@H]1c1cccc(F)c1Cl` (single isomer, unassigned) [Example 97B]: the “Selectivity index (CC50/EC50)” value in the series with HepDE19 cells is above 100000. This compound registered a CC50 at 5 days in series [1] above 100000 nM. For the same compound, in the series on HBV, the pEC50 was 9.05.
`CCOC(=O)C1=C(CN2CCN3C(=O)N(CC(C)C)C[C@@H]3[C@H]2C(=O)O)NC(c2nccs2)=N[C@H]1c1cccc(F)c1Cl` (single isomer, unassigned) [Example 101B]: the “Selectivity index (CC50/EC50)” value in the series on HepDE19 cells is listed as above 100000. Also, the CC50 at 5 days in series [1] is above 100000 nM. For the same compound, the “Human Microsomal Clearance” value in series [2] is reported as 6.1 mL/min/kg. For the same compound, in the series on HBV, the pEC50 is 9.10.
As for `CCOC(=O)C1=C(CN2CCN3C(=O)N(C(C)C)C[C@@H]3C2)NC(c2nccs2)=N[C@H]1c1cccc(F)c1Cl` (single isomer, unassigned) [Example 104B], the “Selectivity index (CC50/EC50)” value in the series with HepDE19 cells is listed as above 6750. This compound also displayed a half-maximal cytotoxic concentration (CC50) at 5 days in series [1] of 27000 nM. Further, in the series with HBV, the pEC50 was 8.40.
The corresponding values for `CCOC(=O)C1=C(CN2CCN3C(=O)N(CC(C)(C)O)C[C@@H]3C2)NC(c2nccs2)=N[C@H]1c1cccc(F)c1Cl` (single isomer, unassigned) [Example 106B] are 21666, 65000 nM and 8.52.
The corresponding values for `COC(=O)C1=C(CN2CCN3C(=O)OC[C@@H]3C2)NC(c2nccs2)=N[C@H]1c1ccc(F)cc1Cl` [Example 4, Methyl (4R)-6-[[(8aS)-3-oxo-5,6,8,8a-tetrahydro-1H-oxazolo[3,4-a]pyrazin-7-yl]methyl]-4-(2-chloro-4-fluoro-phenyl)-2-thiazol-2-yl-1,4-dihydropyrimidine-5-carboxylate] are 23872, 79000 nM and 8.52.
For `CCOC(=O)C1=C(CN2CCN3C(=O)NC[C@@H]3C2)NC(c2nccs2)=N[C@H]1c1ccc(F)cc1Br` [Example 14, Ethyl (4R)-6-[[(8aR)-3-oxo-1,2,5,6,8,8a-hexahydroimidazo[1,5-a]pyrazin-7-yl]methyl]-4-(2-bromo-4-fluoro-phenyl)-2-thiazol-2-yl-1,4-dihydropyrimidine-5-carboxylate], the “Selectivity index (CC50/EC50)” value in the series with HepDE19 cells was 13016. This compound came in with a CC50 at 5 days in series [1] of 23000 nM. For the same compound, the pEC50 with HBV was 8.70.
Consider `CCOC(=O)C1=C(CN2CCN3C(=O)NCC3(C(=O)OC)C2)NC(c2nccs2)=N[C@H]1c1cccc(F)c1Cl` (stereo partly drawn) [Example 24, Methyl 7-[[(4R)-4-(2-chloro-3-fluoro-phenyl)-5-ethoxycarbonyl-2-thiazol-2-yl-1,4-dihydropyrimidin-6-yl]methyl]-3-oxo-2,5,6,8-tetrahydro-1H-imidazo[1,5-a]pyrazine-8a-carboxylate], for which the “Selectivity index (CC50/EC50)” value with HepDE19 cells turned out to be 37857. Besides, the CC50 at 5 days in series [1] came to 53000 nM. The pEC50 in the series on HBV was 9.00.
The corresponding values for `CCOC(=O)C1=C(CN2CCN3C(=O)N(c4ccc(C(=O)O)cc4)C[C@@H]3C2)NC(c2nccs2)=N[C@H]1c1cccc(F)c1Cl` [Example 26, (R)-6-[(S)-2-(4-Carboxy-phenyl)-3-oxo-hexahydro-imidazo[1,5-a]pyrazin-7-ylmethyl]-4-(2-chloro-3-fluoro-phenyl)-2-thiazol-2-yl-1,4-dihydro-pyrimidine-5-carboxylic acid ethyl ester] are 18620, 28000 nM and 8.70.
Regarding `CCOC(=O)C1=C(CN2CCN3C(=O)N(CC4(C(=O)O)CCC4)C[C@@H]3C2)NC(c2nccs2)=N[C@H]1c1cccc(F)c1Cl` [Example 60, 6-[(S)-2-(1-Carboxy-cyclobutylmethyl)-3-oxo-hexahydro-imidazo[1,5-a]pyrazin-7-ylmethyl]-4-((R)-2-chloro-3-fluoro-phenyl)-2-thiazol-2-yl-1,4-dihydro-pyrimidine-5-carboxylic acid ethyl ester], the “Selectivity index (CC50/EC50)” value in the series on HepDE19 cells worked out at 11333. Also, the CC50 at 5 days in series [1] is 68000 nM. The solubility (thermodynamic) – broadly, the concentration in solution at equilibrium with solid – in “Lysa solubility” (phosphate buffer, pH 6.5, aqueous buffer, thermodynamic from solid) came to 436 µg/mL (≈ 691 µM). For the same compound, the pEC50 in the series on HBV was 8.22.
In the case of `CCOC(=O)C1=C(CN2CCN3C(=O)N(Cc4ccc(C(=O)O)cc4)CC3C2)NC(c2nccs2)=N[C@H]1c1cccc(F)c1Cl` (stereo partly drawn) [Example 66, (R)-6-[2-(4-Carboxy-benzyl)-3-oxo-hexahydro-imidazo[1,5-a]pyrazin-7-ylmethyl]-4-(2-chloro-3-fluoro-phenyl)-2-thiazol-2-yl-1,4-dihydro-pyrimidine-5-carboxylic acid ethyl ester], the “Selectivity index (CC50/EC50)” value with HepDE19 cells turned out to be 15000. Besides, in series [1], the CC50 at 5 days stood at 60000 nM. Further, the “Human Microsomal Clearance” value in series [2] is 7.1 mL/min/kg. Besides, the pEC50 in the series on HBV is 8.40.
Regarding `CCOC(=O)C1=C(CN2CCN3C(=O)N(CCO)CC3C2)NC(c2nccs2)=N[C@H]1c1cccc(F)c1Cl` (stereo partly drawn) [Example 70, Ethyl (4R)-4-(2-chloro-3-fluoro-phenyl)-6-[[2-(2-hydroxyethyl)-3-oxo-5,6,8,8a-tetrahydro-1H-imidazo[1,5-a]pyrazin-7-yl]methyl]-2-thiazol-2-yl-1,4-dihydropyrimidine-5-carboxylate], the “Selectivity index (CC50/EC50)” value with HepDE19 cells is given as 12600. It took 63000 nM to reach half-maximal cytotoxicity in series [1] (CC50 at 5 days). Besides, the pEC50 in the series with HBV is 8.30.
On to `COC(=O)C1=C(CN2CCN3C(=O)NCC3(C(=O)OC)C2)NC(c2nccs2)=N[C@H]1c1ccc(F)cc1Cl` (stereo partly drawn) [Example 89, Methyl 7-[[(4R)-4-(2-chloro-4-fluoro-phenyl)-5-methoxycarbonyl-2-thiazol-2-yl-1,4-dihydropyrimidin-6-yl]methyl]-3-oxo-2,5,6,8-tetrahydro-1H-imidazo[1,5-a]pyrazine-8a-carboxylate], for which the “Selectivity index (CC50/EC50)” value with HepDE19 cells is 10714. Moreover, in series [1], the midpoint of cytotoxicity, the CC50 at 5 days, lay at 75000 nM. For the same compound, the pEC50 in the series on HBV is 8.15.
As for `CCCOC(=O)C1=C(CN2CCN3C(=O)N(CC(C)(C)C(=O)O)C[C@@H]3C2)NC(c2nccs2)=N[C@H]1c1cccc(F)c1Cl` [Example 93, 3-[(8aS)-7-[[(4R)-4-(2-chloro-3-fluoro-phenyl)-5-propoxycarbonyl-2-thiazol-2-yl-1,4-dihydropyrimidin-6-yl]methyl]-3-oxo-5,6,8,8a-tetrahydro-1H-imidazo[1,5-a]pyrazin-2-yl]-2,2-dimethyl-propanoic acid], the “Selectivity index (CC50/EC50)” value with HepDE19 cells is reported as 7167. The same compound returned a CC50 at 5 days in series [1] of 86000 nM. For the same compound, in the series on HBV, the pEC50 was 7.92.
With `CCOC(=O)C1=C(CN2CCN3C(=O)N(CC(C)(C)C(=O)O)C[C@@H]3C2)NC(c2nc(C)cs2)=N[C@H]1c1cccc(F)c1Cl` [Example 98, 3-[(8aS)-7-[[(4R)-4-(2-chloro-3-fluoro-phenyl)-5-ethoxycarbonyl-2-(4-methylthiazol-2-yl)-1,4-dihydropyrimidin-6-yl]methyl]-3-oxo-5,6,8,8a-tetrahydro-1H-imidazo[1,5-a]pyrazin-2-yl]-2,2-dimethyl-propanoic acid], the “Selectivity index (CC50/EC50)” value in the series on HepDE19 cells is 6636. Further, the CC50 at 5 days in series [1] turned out to be 73000 nM. Besides, the pEC50 in the series with HBV was 7.96.
